ChEMBL document CHEMBL4811263, “Tulipiferamide A, an Alkamide from Liriodendron tulipifera, Exhibits an Anti-Inflammatory Effect via Targeting IKKβ Phosphorylation” (J Nat Prod, 2021)

Experiments:
RAW264.7 = assay: Antiinflammatory activity in mouse RAW264.7 assessed as inhibition of LPS-induced NO production preincubated for 30 mins followed by LPS stimulation measured after 24 hrs by Griess reagent based assay; format: functional, cell-based
[1] = Inhibition of LPS-indued NF-kappaB activation in mouse RAW264.7 cells preincubated for 30 mins followed by LPS stimulation and measured after 10 hrs by luciferase assay; format: cell-based

| IC50 (RAW264.7) [µM] | IC50 [1] [µM] | Structure (SMILES) |
| --- | --- | --- |
| > 50 | – | COc1cc(/C=C/C(=O)NCCc2ccc(O)c(OC)c2)ccc1O |
| 12 | 14.1 | C=C[C@]1(C)C[C@H](O)[C@H]2C(=C)C(=O)O[C@@H]2[C@H]1C(=C)C |
| > 50 | – | COc1c2c3c(c(OC)c1OC)-c1cc4c(cc1C[C@@H]3N(C(C)=O)CC2)OCO4 |
| > 50 | – | O=C(NCCc1ccccc1)c1ccccc1 |
| 14 | 24.5 | COc1c2c3c(c(OC)c1OC)-c1ccccc1C[C@H]3N(C(C)=O)CC2 |
| > 50 | – | COc1cc(C[C@H]2CO[C@H](c3ccc(O)c(OC)c3)[C@H]2CO)ccc1O [LARICIRESINOL] |
| > 50 | – | COc1cc(C=O)ccc1O [VANILLIN] |
| > 50 | – | CCCCC/C=C/C=C\C(=O)NCCc1ccccc1 |
| – | 0.022 | NC(=O)Nc1sc(-c2ccc(F)cc2)cc1C(N)=O |
| 21.6 | 15.5 | COc1cc(O)c2c(c1)O[C@H](c1ccc(O)cc1)CC2=O [SAKURANETIN] |
| > 50 | – | C=C1C(=O)O[C@@H]2/C=C(\C)CC/C=C(\C)CC[C@@H]12 [COSTUNOLIDE] |
| > 50 | – | C=CCc1cc(OC)c(O)c(OC)c1 [METHOXYEUGENOL] |
| > 50 | – | COc1cc2oc(=O)ccc2c(OC)c1OC [5,6,7-TRIMETHOXYCOUMARIN] |
| > 50 | – | CCCCC/C=C\CCC(=O)NCCc1ccccc1 |
| > 50 | – | C/C=C/c1cc(OC)c(OC(C)Cc2cc(OC)c(OC)c(OC)c2)c(OC)c1 (racemic) |
| > 50 | – | COc1c(OC)c2c3c(nccc3c1OC)C(=O)c1ccccc1-2 [HOMOMOSCHATOLINE] |
| > 50 | – | COc1cc([C@H]2Oc3c(OC)cc(CCCO)cc3[C@@H]2CO)ccc1O [DIHYDRODEHYDRODICONIFERY ALCOHOL] |
